ChEMBL document CHEMBL1201862, “PubChem BioAssay data set” (2004)
Active and inactive are the calls of the source.

Legend:
[1] = NIH-3T3 fibroblast cytotoxicity, dose response, cytotoxicity control, cell-based, fluorescence, Alamar Blue, secondary assay (AID 2327); type: functional;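 also: NIH-3T3 mouse fibroblasts cultured with fluconazole at 8 µg/mL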
[2] = test system: Streptococcus sp. 'group A'; test: growth inhibition of control SK(-) GAS strain, dose response, counter-screen for streptokinase expression inhibitor project, luminescence, kanamycin, BacTiterGlo, confirmation (AID 1900); type: functional, organism-based
Streptokinase A = target: T1, Streptokinase A (Streptococcus pyogenes serotype M1, UniProt P10520); test: S. pyogenes streptokinase expression inhibitors, potency, dose response, plasminogen activation absorbance, OD405 (AID 1914); type: functional, Streptococcus pyogenes M1 GAS;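 also: secreted streptokinase activity via plasminogen activation per viability signal from cell pellet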
T1 sequence (P10520 whole entry): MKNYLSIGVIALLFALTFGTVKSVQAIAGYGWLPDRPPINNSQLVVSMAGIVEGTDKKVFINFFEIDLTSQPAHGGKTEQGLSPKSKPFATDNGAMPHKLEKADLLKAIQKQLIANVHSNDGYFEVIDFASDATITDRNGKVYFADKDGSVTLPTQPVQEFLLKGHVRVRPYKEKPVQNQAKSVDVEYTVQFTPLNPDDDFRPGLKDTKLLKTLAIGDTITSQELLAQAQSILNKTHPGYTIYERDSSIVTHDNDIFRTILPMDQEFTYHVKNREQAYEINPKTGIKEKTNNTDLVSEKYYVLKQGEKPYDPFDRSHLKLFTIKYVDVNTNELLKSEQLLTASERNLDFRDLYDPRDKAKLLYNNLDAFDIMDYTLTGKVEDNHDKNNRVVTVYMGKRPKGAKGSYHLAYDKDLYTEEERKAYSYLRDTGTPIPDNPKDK

[3] = C. albicans growth with fluconazole, confirmation, fluorescence, retest (AID 2467); type: functional, cell-based
[4] = inhibitors of intracellular T. cruzi replication, confirmation, NIH3T3 host cells, beta-gal luminescence (AID 2044); type: functional, cell-based;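 also: intracellular parasites grown in NIH/3T3 mouse fibroblasts as host cells; luminescent beta-galactosidase reporter signal from transgenic T. cruzi replicating inside host cells; inhibitors lower the luminescence signal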
[5] = growth suppression of PTEN-null colon cells, dose response, cell-based, HCT116 PTEN knockout (AID 1047); type: functional;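 also: HCT116 colon tumor cells with PTEN knocked out; cells exposed to compound for 60 hours before readout; potency for loss of cell viability measured by luminescence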
[6] = cytotoxicity toward NIH3T3 fibroblasts, dose response, counter-screen, cell-based, ATP luminescence, mouse fibroblasts (AID 2010); type: functional;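 also: cells exposed to compound for about 90 hours before reading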
[7] = growth suppression of beta-catenin-knockout colon cells, dose response, cell-based, HCT116, human colon tumor (AID 1045); type: functional;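 also: HCT116 colon tumor cells with beta catenin knocked out; cells exposed to compound for 60 hours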
Streptococcus = test: Group A Streptococcus viability loss, dose response, counter-screen for streptokinase expression inhibitor project, luminescence, BacTiterGlo (AID 1915); type: functional, organism-based;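 also: potency for reduction of bacterial viability or growth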
Cysteine protease ATG4B = target: T2, Cysteine protease ATG4B (Homo sapiens, UniProt Q9Y4P1); type: functional;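 also: Fluorescence-based dose-response confirmation assay measuring inhibition of ATG4B activity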
T2 sequence (Q9Y4P1 whole entry): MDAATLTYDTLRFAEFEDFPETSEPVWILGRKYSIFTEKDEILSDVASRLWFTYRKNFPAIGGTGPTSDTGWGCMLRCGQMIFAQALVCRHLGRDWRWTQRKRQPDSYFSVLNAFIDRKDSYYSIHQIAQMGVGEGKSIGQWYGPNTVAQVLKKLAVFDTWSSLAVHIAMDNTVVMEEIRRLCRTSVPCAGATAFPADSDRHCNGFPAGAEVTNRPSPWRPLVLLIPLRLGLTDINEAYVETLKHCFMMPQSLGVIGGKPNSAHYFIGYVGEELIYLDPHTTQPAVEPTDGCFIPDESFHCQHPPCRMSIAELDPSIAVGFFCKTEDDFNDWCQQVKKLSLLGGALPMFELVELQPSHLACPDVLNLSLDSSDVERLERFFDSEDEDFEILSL

Phospholipase A2 = Phospholipase A2 (Homo sapiens, UniProt P04054); type: functional;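 also: confirmatory dose-response counterscreen on phospholipase A2, testing hits that came from an ultra-high-throughput screen for ATG4B inhibitors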
Vero = test: cells; type: functional; conditions: Chlorocebus sabaeus
[8] = target: T3, DNA repair protein RAD52 homolog (Homo sapiens, UniProt P43351); type: functional, biochemical
T3 sequence (P43351 whole entry): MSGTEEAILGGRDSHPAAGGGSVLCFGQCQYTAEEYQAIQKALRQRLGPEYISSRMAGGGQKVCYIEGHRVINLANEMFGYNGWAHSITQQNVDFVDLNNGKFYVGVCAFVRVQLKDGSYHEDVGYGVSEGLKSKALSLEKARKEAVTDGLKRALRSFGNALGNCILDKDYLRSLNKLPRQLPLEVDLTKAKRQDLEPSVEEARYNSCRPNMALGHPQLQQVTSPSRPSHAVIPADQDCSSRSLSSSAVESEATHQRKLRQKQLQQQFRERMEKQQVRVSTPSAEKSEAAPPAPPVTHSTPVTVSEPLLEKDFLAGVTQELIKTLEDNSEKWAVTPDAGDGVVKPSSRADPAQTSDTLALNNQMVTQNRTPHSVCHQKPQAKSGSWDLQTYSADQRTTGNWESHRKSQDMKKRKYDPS

HEK293 [9] = test: NOD1 signaling inhibitors, primary screen, cell-based, luminescence, uHTS (AID 1578); type: functional; conditions: Homo sapiens
HEK293 [10] = test: cells; type: functional, cell-based; conditions: Homo sapiens
HEK293 [11] = test: cells; type: functional, cell-based; conditions: Homo sapiens; remark: listed apart in the source
[12] = target: Nucleotide-binding oligomerization domain-containing protein 2 (Homo sapiens, UniProt Q9HC29); test: NOD2 signaling inhibitors, cell-based, luminescence, uHTS, HEK293 (AID 1566); type: functional
HEK293 [13] = test: NOD2 signaling inhibitors in MDP-stimulated cells, cell-based, uHTS, luminescence (AID 2001); type: functional; conditions: Homo sapiens
HEK293 [14] = test: cells; type: functional, cell-based; conditions: Homo sapiens; remark: listed apart in the source
[15] = target: T4, RNA-binding protein pos-1 (Caenorhabditis elegans, UniProt G5EF15); test: inhibitors of POS-1/mex-3 RNA binding, dose response, biochemical, fluorescence polarization (AID 1964);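 also: purified POS-1 fused to maltose binding protein made in E. coli; potency of compounds blocking POS-1 binding to fluorescent RNA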
T4 sequence (G5EF15 whole entry): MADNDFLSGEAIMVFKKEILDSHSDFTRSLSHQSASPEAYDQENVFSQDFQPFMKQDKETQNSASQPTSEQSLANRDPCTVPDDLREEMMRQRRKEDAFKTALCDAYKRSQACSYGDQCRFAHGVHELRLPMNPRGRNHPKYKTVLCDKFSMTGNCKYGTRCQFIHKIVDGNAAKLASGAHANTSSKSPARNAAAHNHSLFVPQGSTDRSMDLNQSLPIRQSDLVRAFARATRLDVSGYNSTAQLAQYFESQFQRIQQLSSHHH

[16] = target: Peroxisome proliferator-activated receptor gamma/Nuclear receptor coactivator 1 (Homo sapiens, UniProt P37231); test: (§1) TR-FRET dose response biochemical High Throughput Screening assay for agonists of the steroid receptor coactivator 1 (SRC-1) recruitment by the peroxisome proliferator-activated receptor gamma (PPAR gamma): non-selective agonists. [Related pubchem assays (depositor defined):AID1300, AID1808, AID504735, AID631]; type: protein assay
[17] = target: Peroxisome proliferator-activated receptor gamma/Nuclear receptor coactivator 3 (Homo sapiens, UniProt P37231); test: as §1, with “3 (SRC-3)” for “1 (SRC-1)”, “assays: 1301 (Confirmation screen.), 1048 (Primary screen.)]” for “assays (depositor defined):AID1300, AID1808, AID504735, AID631]”; type: functional
[18] = target: T5, Zinc finger protein mex-5 (Caenorhabditis elegans, UniProt Q9XUB2); test: MEX-5/TCR-2 RNA interaction inhibitors, dose response, biochemical, C. elegans, fluorescence polarization (AID 1960)
T5 sequence (Q9XUB2 whole entry): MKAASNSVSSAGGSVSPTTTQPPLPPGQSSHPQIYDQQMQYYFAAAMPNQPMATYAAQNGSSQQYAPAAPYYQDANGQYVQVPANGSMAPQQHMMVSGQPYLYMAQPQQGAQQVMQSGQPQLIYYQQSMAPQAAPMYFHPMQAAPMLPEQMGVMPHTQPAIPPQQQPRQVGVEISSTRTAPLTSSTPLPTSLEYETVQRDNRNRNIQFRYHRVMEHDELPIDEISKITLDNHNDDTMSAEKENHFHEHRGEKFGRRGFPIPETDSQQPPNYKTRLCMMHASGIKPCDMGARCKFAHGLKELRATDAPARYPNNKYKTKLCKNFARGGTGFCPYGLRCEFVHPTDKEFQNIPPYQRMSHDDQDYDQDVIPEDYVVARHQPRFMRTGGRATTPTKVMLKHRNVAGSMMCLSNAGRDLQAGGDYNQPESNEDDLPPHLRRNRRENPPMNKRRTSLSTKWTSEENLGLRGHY

[19] = target: Peroxisome proliferator-activated receptor gamma/Nuclear receptor coactivator 2 (Homo sapiens, UniProt P37231); test: TR-FRET dose response biochemical High Throughput Screening assay for agonists of the steroid receptor coactivator 2 (SRC-2) recruitment by the peroxisome proliferator-activated receptor gamma (PPAR gamma): non-selective agonists. [Related pubchem assays: 1297, 1032 ]; type: functional
Cytochrome P450 1A2 = target: T6, Cytochrome P450 1A2 (Homo sapiens, UniProt P05177);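 also: PubChem cytochrome P450 panel assay, CYP1A2 panel member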
T6 sequence (P05177 whole entry): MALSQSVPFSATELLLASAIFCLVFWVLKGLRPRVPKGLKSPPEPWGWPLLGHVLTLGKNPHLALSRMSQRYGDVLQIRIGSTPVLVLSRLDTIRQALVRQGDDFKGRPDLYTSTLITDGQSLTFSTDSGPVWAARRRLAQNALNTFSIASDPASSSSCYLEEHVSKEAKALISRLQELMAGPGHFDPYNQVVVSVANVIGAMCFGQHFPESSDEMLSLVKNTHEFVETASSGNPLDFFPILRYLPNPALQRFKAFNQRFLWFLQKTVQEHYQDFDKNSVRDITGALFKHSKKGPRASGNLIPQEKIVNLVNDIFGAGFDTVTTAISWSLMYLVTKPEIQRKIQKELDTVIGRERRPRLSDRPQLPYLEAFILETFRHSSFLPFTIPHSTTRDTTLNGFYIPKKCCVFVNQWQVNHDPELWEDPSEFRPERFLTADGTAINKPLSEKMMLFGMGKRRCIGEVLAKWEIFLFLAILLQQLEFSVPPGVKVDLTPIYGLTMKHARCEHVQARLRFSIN

Cytochrome P450 2C9 = Cytochrome P450 2C9 (Homo sapiens, UniProt P11712)
Cytochrome P450 2D6 = Cytochrome P450 2D6 (Homo sapiens, UniProt P10635);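 also: CYP2D6 member of a cytochrome P450 panel assay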
Cytochrome P450 2C19 = Cytochrome P450 2C19 (Homo sapiens, UniProt P33261); test: Cytochrome panel assay with activity outcomes. Panel member name: p450-cyp2c19 Compounds with AC50 equal or less than 10 uM are considered active; type: functional; conditions: read-out: AC50
fMet-Leu-Phe receptor = target: T7, fMet-Leu-Phe receptor (Homo sapiens, UniProt P21462); test: FPR ligands, dose response (AID 519); type: functional
T7 sequence (P21462 whole entry): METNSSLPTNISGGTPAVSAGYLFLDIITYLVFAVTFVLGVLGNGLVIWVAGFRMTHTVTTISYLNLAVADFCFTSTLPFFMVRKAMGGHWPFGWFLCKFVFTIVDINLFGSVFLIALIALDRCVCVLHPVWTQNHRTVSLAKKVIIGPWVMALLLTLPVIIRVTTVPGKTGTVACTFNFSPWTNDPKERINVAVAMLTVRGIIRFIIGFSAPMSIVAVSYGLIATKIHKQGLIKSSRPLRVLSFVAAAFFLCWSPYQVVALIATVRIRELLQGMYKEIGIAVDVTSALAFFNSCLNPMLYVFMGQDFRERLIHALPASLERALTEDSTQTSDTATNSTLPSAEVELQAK

Chain of Nucleotide-binding oligomerization domain-containing protein 2 (Q9HC29 whole entry, the tested form may be a part): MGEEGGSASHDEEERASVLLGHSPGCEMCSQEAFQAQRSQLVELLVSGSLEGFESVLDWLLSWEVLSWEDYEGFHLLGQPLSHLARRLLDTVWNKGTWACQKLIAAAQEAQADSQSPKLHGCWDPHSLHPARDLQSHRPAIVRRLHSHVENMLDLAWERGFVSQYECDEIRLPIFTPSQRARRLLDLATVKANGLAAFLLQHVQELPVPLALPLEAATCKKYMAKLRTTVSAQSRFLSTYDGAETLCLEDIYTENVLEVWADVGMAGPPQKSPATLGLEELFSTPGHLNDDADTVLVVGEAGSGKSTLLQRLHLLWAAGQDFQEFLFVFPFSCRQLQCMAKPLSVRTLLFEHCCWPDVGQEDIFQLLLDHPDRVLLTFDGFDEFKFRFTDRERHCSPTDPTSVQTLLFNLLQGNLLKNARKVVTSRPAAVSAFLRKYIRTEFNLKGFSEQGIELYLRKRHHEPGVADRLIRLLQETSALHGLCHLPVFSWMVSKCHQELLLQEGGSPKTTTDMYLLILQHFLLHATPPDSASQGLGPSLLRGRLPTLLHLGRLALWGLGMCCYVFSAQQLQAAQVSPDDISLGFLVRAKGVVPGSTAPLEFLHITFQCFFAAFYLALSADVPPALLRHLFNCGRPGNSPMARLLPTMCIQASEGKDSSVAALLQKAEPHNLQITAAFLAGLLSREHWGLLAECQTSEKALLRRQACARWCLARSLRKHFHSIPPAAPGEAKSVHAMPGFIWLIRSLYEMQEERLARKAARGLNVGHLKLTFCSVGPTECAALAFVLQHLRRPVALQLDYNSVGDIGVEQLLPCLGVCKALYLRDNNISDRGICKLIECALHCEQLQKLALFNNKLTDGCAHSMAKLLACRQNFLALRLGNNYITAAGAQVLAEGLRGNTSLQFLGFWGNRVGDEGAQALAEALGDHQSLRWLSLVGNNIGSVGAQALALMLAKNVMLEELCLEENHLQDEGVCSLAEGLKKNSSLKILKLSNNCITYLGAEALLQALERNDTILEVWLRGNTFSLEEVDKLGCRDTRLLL
Chain of Cytochrome P450 2D6 (P10635 whole entry): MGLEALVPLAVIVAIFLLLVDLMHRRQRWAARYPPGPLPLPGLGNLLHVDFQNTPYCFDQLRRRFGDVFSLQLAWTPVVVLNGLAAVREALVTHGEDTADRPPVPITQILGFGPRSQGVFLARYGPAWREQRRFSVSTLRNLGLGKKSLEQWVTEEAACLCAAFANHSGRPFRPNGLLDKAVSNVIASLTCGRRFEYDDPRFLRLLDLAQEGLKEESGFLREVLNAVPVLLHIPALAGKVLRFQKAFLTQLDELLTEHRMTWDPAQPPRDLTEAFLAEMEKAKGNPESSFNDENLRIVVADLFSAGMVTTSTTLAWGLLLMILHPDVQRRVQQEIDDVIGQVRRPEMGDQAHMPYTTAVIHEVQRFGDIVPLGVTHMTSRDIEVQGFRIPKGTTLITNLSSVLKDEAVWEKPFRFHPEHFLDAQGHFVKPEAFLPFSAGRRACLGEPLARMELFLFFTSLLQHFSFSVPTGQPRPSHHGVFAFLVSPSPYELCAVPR
Chain of Phospholipase A2 (P04054 whole entry): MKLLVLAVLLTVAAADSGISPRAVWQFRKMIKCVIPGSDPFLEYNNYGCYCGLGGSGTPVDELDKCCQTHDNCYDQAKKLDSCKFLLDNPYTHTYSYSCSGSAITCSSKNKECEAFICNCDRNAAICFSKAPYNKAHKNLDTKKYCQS
Chain of Cytochrome P450 2C9 (P11712 whole entry): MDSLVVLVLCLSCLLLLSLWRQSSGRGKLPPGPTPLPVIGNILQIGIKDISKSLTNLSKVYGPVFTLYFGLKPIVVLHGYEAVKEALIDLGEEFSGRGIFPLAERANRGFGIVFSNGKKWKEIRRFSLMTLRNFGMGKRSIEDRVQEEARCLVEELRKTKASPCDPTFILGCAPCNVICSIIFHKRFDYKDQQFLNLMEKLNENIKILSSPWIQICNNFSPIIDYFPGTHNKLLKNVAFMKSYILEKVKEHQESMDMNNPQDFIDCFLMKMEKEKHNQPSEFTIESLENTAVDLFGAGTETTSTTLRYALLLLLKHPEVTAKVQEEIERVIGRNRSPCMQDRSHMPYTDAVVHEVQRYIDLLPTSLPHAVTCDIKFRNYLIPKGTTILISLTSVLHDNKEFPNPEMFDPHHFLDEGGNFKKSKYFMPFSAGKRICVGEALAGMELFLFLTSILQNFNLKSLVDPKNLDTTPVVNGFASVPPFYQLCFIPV
Chain of Peroxisome proliferator-activated receptor gamma/Nuclear receptor coactivator 2 (P37231 whole entry): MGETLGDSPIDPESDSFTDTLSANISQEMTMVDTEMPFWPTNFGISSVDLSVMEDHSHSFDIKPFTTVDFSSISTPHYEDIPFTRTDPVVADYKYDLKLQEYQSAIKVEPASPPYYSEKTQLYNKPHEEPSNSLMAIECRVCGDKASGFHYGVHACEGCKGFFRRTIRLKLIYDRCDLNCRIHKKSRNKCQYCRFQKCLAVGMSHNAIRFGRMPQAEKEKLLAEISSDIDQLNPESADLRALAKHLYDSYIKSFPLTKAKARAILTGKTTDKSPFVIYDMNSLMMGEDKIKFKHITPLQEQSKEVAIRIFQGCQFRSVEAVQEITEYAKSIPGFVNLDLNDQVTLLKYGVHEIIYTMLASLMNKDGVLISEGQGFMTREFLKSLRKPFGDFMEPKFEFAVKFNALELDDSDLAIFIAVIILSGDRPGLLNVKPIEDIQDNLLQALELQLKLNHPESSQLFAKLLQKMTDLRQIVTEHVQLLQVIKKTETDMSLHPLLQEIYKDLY
Chain of Peroxisome proliferator-activated receptor gamma/Nuclear receptor coactivator 2 (Q15596 whole entry, further chain): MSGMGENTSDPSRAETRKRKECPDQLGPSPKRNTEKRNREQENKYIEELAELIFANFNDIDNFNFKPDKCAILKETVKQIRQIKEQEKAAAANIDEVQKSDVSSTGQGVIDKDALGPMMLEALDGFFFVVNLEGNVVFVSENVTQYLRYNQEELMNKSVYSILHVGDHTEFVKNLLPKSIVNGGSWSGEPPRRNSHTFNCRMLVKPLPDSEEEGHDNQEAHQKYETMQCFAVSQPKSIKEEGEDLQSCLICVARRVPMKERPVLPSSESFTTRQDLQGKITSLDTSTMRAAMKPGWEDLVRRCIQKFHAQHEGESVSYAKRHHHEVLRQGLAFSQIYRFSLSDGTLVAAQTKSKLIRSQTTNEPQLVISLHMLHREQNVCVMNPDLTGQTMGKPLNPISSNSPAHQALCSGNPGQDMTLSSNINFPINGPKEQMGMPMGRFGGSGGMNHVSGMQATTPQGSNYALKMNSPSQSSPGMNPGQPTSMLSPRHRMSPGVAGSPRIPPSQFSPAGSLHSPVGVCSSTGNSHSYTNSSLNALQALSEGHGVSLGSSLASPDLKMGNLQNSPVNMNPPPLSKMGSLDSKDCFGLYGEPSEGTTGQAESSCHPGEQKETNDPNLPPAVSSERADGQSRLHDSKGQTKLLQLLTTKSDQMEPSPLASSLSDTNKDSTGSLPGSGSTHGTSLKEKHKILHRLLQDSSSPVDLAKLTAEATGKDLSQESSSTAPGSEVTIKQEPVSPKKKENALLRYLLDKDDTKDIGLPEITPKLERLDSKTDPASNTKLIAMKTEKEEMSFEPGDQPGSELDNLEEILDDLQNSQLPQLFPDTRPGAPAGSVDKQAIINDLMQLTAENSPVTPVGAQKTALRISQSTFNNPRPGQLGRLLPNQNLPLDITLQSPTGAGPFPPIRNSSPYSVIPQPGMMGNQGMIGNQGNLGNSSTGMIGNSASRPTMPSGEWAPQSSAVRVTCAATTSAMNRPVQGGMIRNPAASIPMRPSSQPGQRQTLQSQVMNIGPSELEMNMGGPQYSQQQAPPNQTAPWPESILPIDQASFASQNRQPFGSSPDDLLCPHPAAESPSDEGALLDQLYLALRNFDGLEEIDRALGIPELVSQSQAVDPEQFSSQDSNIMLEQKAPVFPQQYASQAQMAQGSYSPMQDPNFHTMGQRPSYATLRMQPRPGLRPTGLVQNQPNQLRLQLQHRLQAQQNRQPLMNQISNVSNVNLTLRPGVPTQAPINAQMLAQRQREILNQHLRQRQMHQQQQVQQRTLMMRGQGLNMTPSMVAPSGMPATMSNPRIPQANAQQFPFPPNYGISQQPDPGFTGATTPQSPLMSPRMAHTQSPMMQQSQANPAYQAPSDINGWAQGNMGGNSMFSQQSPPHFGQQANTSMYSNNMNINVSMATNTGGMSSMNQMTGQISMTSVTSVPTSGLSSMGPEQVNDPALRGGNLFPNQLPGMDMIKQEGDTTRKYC
Chain of Cytochrome P450 2C19 (P33261 whole entry): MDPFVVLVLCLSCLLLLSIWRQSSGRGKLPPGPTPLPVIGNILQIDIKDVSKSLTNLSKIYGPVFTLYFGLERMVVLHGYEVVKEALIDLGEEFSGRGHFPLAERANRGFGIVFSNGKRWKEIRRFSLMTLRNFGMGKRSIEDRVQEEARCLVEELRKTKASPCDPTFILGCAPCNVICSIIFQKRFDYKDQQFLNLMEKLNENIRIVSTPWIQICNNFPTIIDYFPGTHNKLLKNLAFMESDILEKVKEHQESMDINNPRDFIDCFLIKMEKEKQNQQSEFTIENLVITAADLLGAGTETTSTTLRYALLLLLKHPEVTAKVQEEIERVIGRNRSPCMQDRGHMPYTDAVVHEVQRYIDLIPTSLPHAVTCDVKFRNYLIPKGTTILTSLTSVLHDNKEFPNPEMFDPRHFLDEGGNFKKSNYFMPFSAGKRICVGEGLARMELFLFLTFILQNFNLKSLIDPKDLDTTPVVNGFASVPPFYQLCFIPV

For CCCCCCCOC(=O)C[N+](C)(C)CCOC1CC2CCC1(C)C2(C)C (stereo not drawn), the EC50 [1] was > 150 µM (inactive), the EC50 [2] was 3.84 µM (active) and the EC50 (Streptokinase A) was 5.77 µM (active). For the same compound, the EC50 [3] was 0.997 µM (active), the EC50 [4] was 0.224 µM (active) and the EC50 [5] was 15.8 µM (active). The EC50 [6] was > 60 µM (not active), the EC50 [7] was 20.2 µM (active) and the EC50 (Streptococcus) was 9.21 µM (active). For the same compound, the IC50 (Cysteine protease ATG4B) was 7.62 µM (active), the IC50 (Phospholipase A2) was 10.3 µM (active) and the CC50 (Vero) was > 25 µM (active). The AC50 [8] was 29.2 µM (active).

In the case of COc1ccc(-c2cc(=O)oc3cc(O)ccc23)cc1, the EC50 (HEK293 [9]) is reported as 5.67 µM (active), the IC50 (HEK293 [10]) is reported as 2.45 µM (active) and the IC50 (HEK293 [11]) is reported as > 20 µM (inactive). For the same compound, the EC50 [12] was 5.73 µM (active), the IC50 (HEK293 [13]) was 3.06 µM (active) and the IC50 (HEK293 [14]) was > 20 µM (inactive).

With Cc1nnc(N2C(=O)C(O)=C(C(=O)c3ccco3)C2c2ccc(F)cc2)s1 (stereo not drawn) the EC50 [15] was 34.2 µM (active), the EC50 [16] was > 79.4 µM (inactive) and the EC50 [17] was > 79.4 µM (not active). For the same compound, the EC50 [18] was 32.9 µM (active) and the EC50 [19] was 27 µM (not active).

For Oc1nc(-c2ccccc2)cc(C(F)(F)F)n1, the AC50 (Cytochrome P450 1A2) was 11.2 µM (inconclusive), the AC50 (Cytochrome P450 2C9) was 6.31 µM (inconclusive) and the AC50 (Cytochrome P450 2D6) was “inconclusive”.

In the case of Cc1onc(-c2ccccc2)c1CNC(=O)Nc1cccc(Cl)c1, the IC50 (Cysteine protease ATG4B) is reported as 15 µM (active) and the IC50 (Phospholipase A2) is reported as 8.35 µM (active).

With O=C(O)C1CCCCC1C(=O)Nc1ccccc1Cl (stereo not drawn) the AC50 (Cytochrome P450 2C19) was 2.24 µM (inconclusive), the Ki (fMet-Leu-Phe receptor) was > 66.7 µM (inactive) and the AC50 (Cytochrome P450 2D6) was “inconclusive”.

For Cc1ccc2cccc(/N=C/c3c(C)[nH]n(-c4ccccc4)c3=O)c2n1, the EC50 (HEK293 [9]) was 4.72 µM (active), the IC50 (HEK293 [10]) was > 20 µM (inactive) and the IC50 (HEK293 [11]) was > 20 µM (inactive). For the same compound, the EC50 [12] was > 20 µM (inactive), the IC50 (HEK293 [13]) was 7.67 µM (active) and the IC50 (HEK293 [14]) was > 20 µM (inactive).
